Laboratory results as given in ChEMBL document CHEMBL4011641, “Prodrugs of Pyrazolo[3,4-d]pyrimidines: From Library Synthesis to Evaluation as Potential Anticancer Agents in an Orthotopic Glioblastoma Model” (J Med Chem, 2017).
pIC50, pKi: −log10 of the molar value. In brackets after ≈: the same amount, converted by molar mass.

Key:
[1] = Metabolic stability in human liver microsomes assessed as parent compound remaining at 50 uM after 1 hr in presence of NADPH regenerating system by UV/LC-MS analysis; format: ADME, microsome; settings: read-out: Stability
[2] = pampa, 5 h, 500 µM
Description: (§1) Apparent permeability at 500 uM after 5 hrs by Gastro-intestinal-based PAMPA

physchem [3] = settings: PAMPA
Description: Apparent permeability at 500 uM after 5 hrs by Blood-Brain Barrier-based PAMPA

[4] = Metabolic stability in mouse liver microsomes assessed as unmetabolized compound remaining at 50 uM after 1 hr in presence of NADPH regenerating system by UV/LC-MS analysis; format: ADME, microsome; settings: read-out: Stability
cells [5] = settings: Homo sapiens, U-87 MG, 24 h
Description: Cytotoxicity against human U87 cells assessed as reduction in cell viability after 24 hrs by trypan blue assay

cells [6] = settings: Homo sapiens, U-87 MG, 48 h
Description: Cytotoxicity against human U87 cells assessed as reduction in cell viability after 48 hrs by trypan blue assay

cells [7] = settings: Homo sapiens, U-87 MG, 72 h
Description: Cytotoxicity against human U87 cells assessed as reduction in cell viability after 72 hrs by trypan blue assay

physchem [8] = settings: PAMPA; remark: listed apart in the source
Description: as §1

physchem [9] = settings: aqueous
Description: Aqueous solubility of compound at 1 mg after 24 hrs by UV/LC-MS analysis

[10] = Half life in PBS buffer at 100 uM at pH 7.4 by UV/LC-MS analysis; format: physicochemical
[11] = Half life in methanol at 100 uM by UV/LC-MS analysis; format: physicochemical
[12] = Half life in human plasma by UV/LC-MS analysis; format: ADME, cell-free
[13] = Drug uptake in cytoplasm of human U87 cells at 20 uM after 2 hrs by UV/LC-MS analysis; format: ADME
[14] = Drug uptake in cytoplasm of human U87 cells at 20 uM after 5 hrs by UV/LC-MS analysis; format: ADME
[15] = Half life in mouse plasma by UV/LC-MS analysis; format: ADME, cell-free
[16] = Prodrug activation in human U87 cells assessed as N-(3-bromophenyl)-6-(methylthio)-1-(2-phenylpropyl)-1H-pyrazolo[3,4-d]pyrimidin-4-amine formation at 20 uM up to 25 hrs by UV/LC-MS analysis; format: cell-based; settings: u-87mg atcc
[17] = target: Tyrosine-protein kinase ABL1 (Homo sapiens, UniProt P00519)
Description: Inhibition of human wild type full length N-terminal GST/6His-tagged ABL (P118 to S535 residues) expressed in Sf9 cells using abltide as substrate after 5 mins in presence of [gamma-32P]ATP by scintillation counting

[18] = target: Proto-oncogene tyrosine-protein kinase Src (Homo sapiens, UniProt P12931); experiment: biochemical
Description: Inhibition of human wild type full length N-terminal GST/6His-tagged SRC (M1 to L536 residues) expressed in baculovirus infected Sf9 cells using src peptide as substrate after 5 mins in presence of [gamma-32P]ATP by scintillation counting method

[19] = Drug uptake in cytoplasm of human U87 cells at 20 uM after 7 hrs by UV/LC-MS analysis; format: ADME

Sequence of Proto-oncogene tyrosine-protein kinase Src (P12931 2-536 limits assumed): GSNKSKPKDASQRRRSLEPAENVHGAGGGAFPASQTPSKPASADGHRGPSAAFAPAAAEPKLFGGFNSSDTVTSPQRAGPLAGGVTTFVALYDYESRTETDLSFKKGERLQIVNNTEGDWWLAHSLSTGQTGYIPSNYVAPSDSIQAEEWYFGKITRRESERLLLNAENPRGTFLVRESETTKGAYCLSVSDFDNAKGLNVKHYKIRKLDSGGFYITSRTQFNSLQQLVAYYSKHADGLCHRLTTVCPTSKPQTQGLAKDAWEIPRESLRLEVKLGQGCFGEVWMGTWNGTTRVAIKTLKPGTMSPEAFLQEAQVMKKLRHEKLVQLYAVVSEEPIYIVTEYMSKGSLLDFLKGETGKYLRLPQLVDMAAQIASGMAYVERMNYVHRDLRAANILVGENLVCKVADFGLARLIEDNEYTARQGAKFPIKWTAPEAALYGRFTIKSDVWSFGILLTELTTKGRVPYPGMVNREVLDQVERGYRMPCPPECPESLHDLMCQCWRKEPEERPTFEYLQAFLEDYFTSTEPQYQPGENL
Sequence of Tyrosine-protein kinase ABL1 (P00519 whole entry): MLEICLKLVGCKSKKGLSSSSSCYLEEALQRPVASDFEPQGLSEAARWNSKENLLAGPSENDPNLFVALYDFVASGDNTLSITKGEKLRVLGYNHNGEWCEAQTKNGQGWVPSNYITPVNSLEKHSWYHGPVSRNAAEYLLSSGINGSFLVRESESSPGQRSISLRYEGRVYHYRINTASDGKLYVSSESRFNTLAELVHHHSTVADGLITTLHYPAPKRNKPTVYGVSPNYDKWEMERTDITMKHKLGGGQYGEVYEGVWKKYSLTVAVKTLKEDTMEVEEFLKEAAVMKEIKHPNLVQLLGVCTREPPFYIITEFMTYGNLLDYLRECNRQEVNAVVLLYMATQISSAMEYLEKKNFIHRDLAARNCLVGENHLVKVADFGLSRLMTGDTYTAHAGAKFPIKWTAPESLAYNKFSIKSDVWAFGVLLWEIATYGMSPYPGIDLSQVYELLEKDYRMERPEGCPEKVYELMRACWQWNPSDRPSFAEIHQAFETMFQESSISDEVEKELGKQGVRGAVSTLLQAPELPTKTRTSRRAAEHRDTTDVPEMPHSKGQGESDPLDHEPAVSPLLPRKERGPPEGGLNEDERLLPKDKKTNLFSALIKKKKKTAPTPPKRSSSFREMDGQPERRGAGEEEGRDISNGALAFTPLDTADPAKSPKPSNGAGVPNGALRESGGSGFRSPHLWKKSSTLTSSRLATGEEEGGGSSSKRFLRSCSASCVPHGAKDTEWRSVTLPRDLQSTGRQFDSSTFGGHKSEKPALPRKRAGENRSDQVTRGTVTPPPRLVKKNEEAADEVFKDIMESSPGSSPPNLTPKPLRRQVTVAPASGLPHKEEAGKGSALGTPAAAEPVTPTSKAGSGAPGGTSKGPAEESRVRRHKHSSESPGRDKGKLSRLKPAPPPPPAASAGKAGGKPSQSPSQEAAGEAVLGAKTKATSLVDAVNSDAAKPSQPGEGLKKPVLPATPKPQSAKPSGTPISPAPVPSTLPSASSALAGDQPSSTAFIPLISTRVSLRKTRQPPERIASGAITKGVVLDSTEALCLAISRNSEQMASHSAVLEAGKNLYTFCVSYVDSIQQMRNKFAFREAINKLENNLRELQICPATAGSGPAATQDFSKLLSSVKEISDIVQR

| SMILES | remaining at 1 h, 50 µM [1] [%] | Papp [2] [×10⁻⁶ cm/s] | Papp at 5 h, 500 µM (physchem [3]) [×10⁻⁶ cm/s] | remaining at 1 h, 50 µM [4] [%] | pIC50 (cells [5]) | pIC50 (cells [6]) | pIC50 (cells [7]) | Papp at 5 h, 500 µM (physchem [8]) [×10⁻⁶ cm/s] | solubility at 24 h (physchem [9]) [µg/mL] | half-life at 100 µM [10] [h] | half-life at 100 µM [11] [h] | half-life [12] [h] | Drug uptake [13] | Drug uptake [14] | half-life [15] [h] | Drug metabolism [16] | pKi [17] | pKi [18] | Drug uptake [19] |
| --- | --- | --- | --- | --- | --- | --- | --- | --- | --- | --- | --- | --- | --- | --- | --- | --- | --- | --- | --- |
| CSc1nc(NCCc2ccccc2)c2cnn(CC(Cl)c3ccccc3)c2n1 (stereo unspecified) | 96.2 |  | 6.17 |  |  |  |  | 7.4 | 0.07 (≈ 0.165 µM) |  |  |  |  |  |  |  |  |  |  |
| CSc1nc(Nc2cccc(Cl)c2)c2cnn(CC(Cl)c3ccccc3)c2n1 (stereo unspecified) | 91.1 | 0.26 | 3.14 |  | 4.66 | 4.76 | 4.90 |  | 0.13 (≈ 0.302 µM) |  |  |  |  |  |  |  |  | 6.14 |  |
| CSc1nc(N(C(=O)OCCN2CCN(C)CC2)c2cccc(Cl)c2)c2cnn(CCc3ccccc3)c2n1 |  |  | 4.3 |  |  |  |  | 4.69 | 6.32 (≈ 11.2 µM) | > 48 | > 48 | 3.13 |  |  |  |  |  |  |  |
| CSc1nc(N(C(=O)OC(Cc2ccccc2)CN2CCN(C)CC2)c2cccc(Br)c2)c2cnn(CC(C)c3ccccc3)c2n1 (stereo unspecified) |  |  | 1.01 |  | 5.17 | 5.61 | 5.77 | 2.32 | 0.99 (≈ 1.39 µM) | > 48 | > 48 | 40 |  |  |  | Metabolite_Detected | < 4.00 | < 4.00 | Active |
| CCC(CN1CCN(C)CC1)OC(=O)N(c1cccc(Br)c1)c1nc(SC)nc2c1cnn2CC(C)c1ccccc1 (stereo unspecified) |  |  | 0.93 |  | 5.11 | 5.19 | 5.70 | 1.45 | 1.96 (≈ 3 µM) | > 48 | > 48 | 11.3 |  |  |  |  |  |  |  |
| CSc1nc(N(C(=O)OC(CN2CCN(C)CC2)c2ccccc2)c2cccc(Br)c2)c2cnn(CC(C)c3ccccc3)c2n1 (stereo unspecified) |  |  |  |  |  |  |  |  |  | < 0.25 | < 0.25 |  |  |  |  |  |  |  |  |
| CN1CCN(CCOC(=O)N(Cc2ccccc2Cl)c2ncnc3c2cnn3CC(Cl)c2ccc(Br)cc2)CC1 (stereo unspecified) |  |  | 1.92 |  |  |  |  | 2.38 | 1.95 (≈ 3.01 µM) | > 48 | > 48 | 75 |  |  |  |  |  |  |  |
| CSc1nc(N(CCc2ccccc2)C(=O)OCCN2CCN(C)CC2)c2cnn(CC(Cl)c3ccccc3)c2n1 (stereo unspecified) |  |  | 0.01 |  |  |  |  | 0.85 | 107 (≈ 180 µM) | > 48 | > 48 | 45.2 |  |  |  |  |  |  |  |
| CCCCNc1nc(SCC)nc2c1cnn2CC(Cl)c1ccccc1 (stereo unspecified) |  |  | 9.99 |  |  |  |  |  | 0.05 (≈ 0.128 µM) |  |  |  |  |  |  |  |  |  |  |

Second part, the compound after the results:

| remaining at 1 h, 50 µM [1] [%] | Papp [2] [×10⁻⁶ cm/s] | Papp at 5 h, 500 µM (physchem [3]) [×10⁻⁶ cm/s] | remaining at 1 h, 50 µM [4] [%] | pIC50 (cells [5]) | pIC50 (cells [6]) | pIC50 (cells [7]) | Papp at 5 h, 500 µM (physchem [8]) [×10⁻⁶ cm/s] | solubility at 24 h (physchem [9]) [µg/mL] | half-life at 100 µM [10] [h] | half-life at 100 µM [11] [h] | half-life [12] [h] | Drug uptake [13] | Drug uptake [14] | half-life [15] [h] | Drug metabolism [16] | pKi [17] | pKi [18] | Drug uptake [19] | SMILES |
| --- | --- | --- | --- | --- | --- | --- | --- | --- | --- | --- | --- | --- | --- | --- | --- | --- | --- | --- | --- |
| 99 | 0.25 | 1.48 |  |  |  |  |  |  |  |  |  |  |  |  |  |  |  |  | CSc1nc(Nc2cccc(Cl)c2)c2cnn(CCc3ccccc3)c2n1 |
|  |  | 0.5 | 94.2 | 4.79 | 5.64 | 5.82 | 0.01 | 0.01 (≈ 0.022 µM) |  |  |  |  |  |  |  |  |  |  | CSc1nc(Nc2cccc(Br)c2)c2cnn(CC(C)c3ccccc3)c2n1 (stereo unspecified) |
| 96.4 |  |  |  | 4.60 | 4.76 | 4.85 |  | 0.06 (≈ 0.14 µM) |  |  |  |  |  |  |  |  |  |  | ClC(Cn1ncc2c(Nc3ccccc3)ncnc21)c1ccc(Br)cc1 (stereo unspecified) |
| 95.2 |  | 13.2 |  |  |  |  |  | < 0.01 |  |  |  |  |  |  |  |  |  |  | Clc1ccccc1CNc1ncnc2c1cnn2CC(Cl)c1ccc(Br)cc1 (stereo unspecified) |
|  |  |  |  |  |  |  |  |  | 1 | 2 | 0.46 |  |  |  |  |  |  |  | CCCCN(C(=O)OCCN1CCN(C)CC1)c1nc(SCC)nc2c1cnn2CC(Cl)c1ccccc1 (stereo unspecified) |
|  |  | 1.89 | 93.3 | 5.14 | 5.66 | 5.80 |  | 6.47 (≈ 10.4 µM) | > 48 | > 48 |  | Active | Active | 2 | Metabolite_Detected | < 4.00 | < 4.00 |  | CSc1nc(N(C(=O)OCCN2CCN(C)CC2)c2cccc(Br)c2)c2cnn(CC(C)c3ccccc3)c2n1 (stereo unspecified) |
| 86.4 |  | 5.01 |  | 4.73 | 4.82 | 4.82 | 6.7 | 18.8 (≈ 35.2 µM) | > 48 | > 48 | 64.4 |  |  |  |  |  |  |  | CN1CCN(CCOC(=O)N(Cc2ccccc2)c2ncnc3c2cnn3CC(Cl)c2ccccc2)CC1 (stereo unspecified) |
|  |  | 6.97 |  | 5.09 | 5.29 | 5.70 | 9.91 | 41.6 (≈ 69.4 µM) | > 48 | > 48 | 5.68 |  |  |  |  |  |  |  | CN1CCN(CCOC(=O)N(c2ccccc2)c2ncnc3c2cnn3CC(Cl)c2ccc(Br)cc2)CC1 (stereo unspecified) |
|  |  | 2.39 |  | 5.13 | 5.35 | 5.74 | 2.15 | 3.4 (≈ 5.32 µM) | > 48 | > 48 |  |  |  |  | Metabolite_Detected | < 4.00 | < 4.00 | Active | CSc1nc(N(C(=O)OC(C)CN2CCN(C)CC2)c2cccc(Br)c2)c2cnn(CC(C)c3ccccc3)c2n1 (stereo unspecified) |
|  |  | 4.14 |  | 4.94 | 5.10 | 5.60 | 4.95 | 4.22 (≈ 7.03 µM) | > 48 | > 48 | 3.71 |  |  |  |  |  |  |  | CSc1nc(N(C(=O)OCCN2CCN(C)CC2)c2cccc(Cl)c2)c2cnn(CC(Cl)c3ccccc3)c2n1 (stereo unspecified) |
| 78.3 |  |  |  | 4.84 | 5.31 | 5.54 |  | 0.7 (≈ 1.92 µM) |  |  |  |  |  |  |  |  |  |  | ClC(Cn1ncc2c(NCc3ccccc3)ncnc21)c1ccccc1 (stereo unspecified) |
